Measured values as given in patent publication US9980943B2, “Methods of treating muscular dystrophy” (BOARD OF REGENTS OF THE NEVADA SYSTEM OF HIGHER EDUCATION, …, priority 2013, dated 2018).

Key:
Type in all cases: cell-based, mouse
[1] = test system: α7 integrin (LacZ reporter in α7βgal+/− myoblasts); assay: Myoblast α7+/LacZ integrin FDG assay (Burkin assay in myoblasts, 96-well); conditions: α7+/LacZ myoblasts, 96-well
[2] = test system: β-galactosidase in CMV-LacZ C2C12 myotubes; assay: CMV-LacZ secondary screen in C2C12 myotubes (β-Gal stabilizing assay); conditions: for CMV-LACZ in Myotubes (β-galactosidase activity relative to DMSO): CMV-LacZ C2C12 myotubes, 96-well format
Method in brief: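 First, C2C12 myoblasts were transfected with a linearized CMV-LACZ vector and clonal lines selected by FDG β-gal assay. Then cells were exposed to compounds at 0.5, 1, 5, 10, 20 and 40 μM in 96-well format, two replicates each, and β-gal measured.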

[3] = test system: α7 integrin (LacZ reporter in α7+/LacZ myotubes); assay: Myotube α7 integrin FDG assay (Burkin assay in myotubes, 96-well); conditions: myotubes
[4] = 5 uM, C2C12 CMV-LacZ myotubes, fold relative to DMSO
[5] = 10 uM, C2C12 CMV-LacZ myotubes, fold relative to DMSO
[6] = 20 uM, C2C12 CMV-LacZ myotubes, fold relative to DMSO
[7] = 40 uM, C2C12 CMV-LacZ myotubes, fold relative to DMSO

Row | Compound | Burkin Assay in Myoblasts, signal relative to DMSO ([1]; 0.5 uM) | Burkin Assay in Myoblasts, signal relative to DMSO ([1]; 1 uM) | Burkin Assay in Myoblasts, signal relative to DMSO ([1]; 5 uM) | Burkin Assay in Myoblasts, signal relative to DMSO ([1]; 10 uM) | CMV-LACZ in Myotubes, signal relative to DMSO [2, 4] | CMV-LACZ in Myotubes, signal relative to DMSO [2, 5] | CMV-LACZ in Myotubes, signal relative to DMSO [2, 6] | CMV-LACZ in Myotubes, signal relative to DMSO [2, 7] | Burkin Assay in Myoblasts, value relative to DMSO ([1]; 0.5 uM) | Burkin Assay in Myoblasts, value relative to DMSO ([1]; 1 uM) | Burkin Assay in Myoblasts, value relative to DMSO ([1]; 5 uM) | Burkin Assay in Myoblasts, value relative to DMSO ([1]; 10 uM) | Burkin Assay in Myoblasts, value relative to DMSO ([1]; 20 uM) | Burkin Assay in Myoblasts, value relative to DMSO ([1]; 40 uM) | Burkin Assay in Myotubes (signal relative to DMSO) ([3]; 0.5 uM) | Burkin Assay in Myotubes (signal relative to DMSO) ([3]; 1 uM) | Burkin Assay in Myotubes (signal relative to DMSO) ([3]; 5 uM) | Burkin Assay in Myotubes (signal relative to DMSO) ([3]; 10 uM) | Burkin Assay in Myotubes (signal relative to DMSO) ([3]; 20 uM) | Burkin Assay in Myotubes (signal relative to DMSO) ([3]; 40 uM) | other results
1 | COc1ccc(C)cc1NC(=O)c1ccc2c(O)c(S(=O)(=O)c3ccccc3)c(=O)[nH]c2c1 [MLS001122718-01] | 1.1056 | 1.041 | 1.033 | 0.9092 | 0.8862 | 0.9662 | 0.9567 | 0.89 | – | – | – | – | – | – | – | – | – | – | – | – | Burkin Assay in Myoblasts, signal relative to DMSO ([1]; 20 uM): 0.9923; Burkin Assay in Myoblasts, signal relative to DMSO ([1]; 40 uM): 0.9332; Burkin Assay in Myotubes, α7 integrin LacZ reporter signal relative to DMSO ([3]; 0.5 uM): 1.011; Burkin Assay in Myotubes, α7 integrin LacZ reporter signal relative to DMSO ([3]; 1 uM): 0.9435; Burkin Assay in Myotubes, α7 integrin LacZ reporter signal relative to DMSO ([3]; 5 uM): 1.069; Burkin Assay in Myotubes, α7 integrin LacZ reporter signal relative to DMSO ([3]; 10 uM): 1.106; Burkin Assay in Myotubes, α7 integrin LacZ reporter signal relative to DMSO ([3]; 20 uM): 1.089; Burkin Assay in Myotubes, α7 integrin LacZ reporter signal relative to DMSO ([3]; 40 uM): 0.9804
2 | COc1cc(NC(=O)CN(C)S(=O)(=O)c2ccc3c(c2)CC(C)N3C(C)=O)cc(OC)c1OC (centres unmarked) [MLS001122792-01] | – | – | – | – | 0.8137 | 0.9675 | 0.9969 | 0.7254 | 0.9702 | 0.8787 | 0.913 | 0.8643 | 0.9989 | 0.8058 | 1.192 | 1.032 | 1.102 | 0.6414 | 1.068 | 0.8522 | –
3 | COC(=O)c1ccc(COC(=O)CNC(=O)c2cccs2)cc1 [MLS001123810-01] | – | – | – | – | 0.8812 | 0.815 | 1.159 | 0.9346 | 0.9767 | 0.9524 | 0.9782 | 0.9779 | 0.8853 | 0.8729 | 0.974 | 0.9657 | 1.417 | 1.116 | 0.9515 | 0.9694 | –
4 | COc1ccc(NC(=O)c2cccc(N3C(=O)c4ccc(C(=O)Nc5ccc(OC)c(O)c5)cc4C3=O)c2)cc1O [MLS001124732-01] | 1.121 | 1.071 | 0.8622 | 0.8125 | 1.025 | 1.016 | 1.07 | 0.972 | – | – | – | – | – | – | – | – | – | – | – | – | Burkin Assay in Myoblasts, signal relative to DMSO ([1]; 20 uM): 0.6893; Burkin Assay in Myoblasts, signal relative to DMSO ([1]; 40 uM): 0.6581; Burkin Assay in Myotubes, α7 integrin LacZ reporter signal relative to DMSO ([3]; 0.5 uM): 1.0065; Burkin Assay in Myotubes, α7 integrin LacZ reporter signal relative to DMSO ([3]; 1 uM): 1.029; Burkin Assay in Myotubes, α7 integrin LacZ reporter signal relative to DMSO ([3]; 5 uM): 0.8759; Burkin Assay in Myotubes, α7 integrin LacZ reporter signal relative to DMSO ([3]; 10 uM): 0.8964; Burkin Assay in Myotubes, α7 integrin LacZ reporter signal relative to DMSO ([3]; 20 uM): 0.8719; Burkin Assay in Myotubes, α7 integrin LacZ reporter signal relative to DMSO ([3]; 40 uM): 0.7888
5 | COc1cc(NC(=O)C2C3C=CC(C3)C2C(=O)O)ccc1NC(=O)c1ccccc1 (centres unmarked) [MLS001125488-01] | – | – | – | – | – | – | – | – | – | – | – | – | – | – | – | – | – | – | – | – | fold induction at 0.5 µM ([1]; Mus musculus, Myoblast, 48 h, 0.5 uM, read-out: Burkin Assay in Myoblasts, signal relative to DMSO): 0.933; fold induction at 1 µM ([1]; Mus musculus, Myoblast, 48 h, 1 uM, read-out: Burkin Assay in Myoblasts, signal relative to DMSO): 0.976; fold induction at 5 µM ([1]; Mus musculus, Myoblast, 48 h, 5 uM, read-out: Burkin Assay in Myoblasts, signal relative to DMSO): 0.99; fold induction at 10 µM ([1]; Mus musculus, Myoblast, 48 h, 10 uM, read-out: Burkin Assay in Myoblasts, signal relative to DMSO): 0.879; fold induction at 20 µM ([1]; Mus musculus, Myoblast, 48 h, 20 uM, read-out: Burkin Assay in Myoblasts, signal relative to DMSO): 0.907; fold induction at 40 µM ([1]; Mus musculus, Myoblast, 48 h, 40 uM, read-out: Burkin Assay in Myoblasts, signal relative to DMSO): 0.923; fold induction at 5 µM ([2]; Mus musculus, C2C12, read-out: CMV-LACZ in Myotubes, signal relative to DMSO, 5 uM, C2C12 CMV-LacZ myotubes, fold relative to DMSO): 0.747; fold induction at 10 µM ([2]; Mus musculus, C2C12, read-out: CMV-LACZ in Myotubes, signal relative to DMSO, 10 uM, C2C12 CMV-LacZ myotubes, fold relative to DMSO): 0.968; fold induction at 20 µM ([2]; Mus musculus, C2C12, read-out: CMV-LACZ in Myotubes, signal relative to DMSO, 20 uM, C2C12 CMV-LacZ myotubes, fold relative to DMSO): 1.18; fold induction at 40 µM ([2]; Mus musculus, C2C12, read-out: CMV-LACZ in Myotubes, signal relative to DMSO, 40 uM, C2C12 CMV-LacZ myotubes, fold relative to DMSO): 0.872; fold induction at 0.5 µM ([3]; Mus musculus, Myotube, 0.5 uM, read-out: Burkin Assay in Myotubes, α7 integrin LacZ reporter signal relative to DMSO): 1.03; fold induction at 1 µM ([3]; Mus musculus, Myotube, 1 uM, read-out: Burkin Assay in Myotubes, α7 integrin LacZ reporter signal relative to DMSO): 1.15; fold induction at 5 µM ([3]; Mus musculus, Myotube, 5 uM, read-out: Burkin Assay in Myotubes, α7 integrin LacZ reporter signal relative to DMSO): 1.12; fold induction at 10 µM ([3]; Mus musculus, Myotube, 10 uM, read-out: Burkin Assay in Myotubes, α7 integrin LacZ reporter signal relative to DMSO): 1.32; fold induction at 20 µM ([3]; Mus musculus, Myotube, 20 uM, read-out: Burkin Assay in Myotubes, α7 integrin LacZ reporter signal relative to DMSO): 1.14; fold induction at 40 µM ([3]; Mus musculus, Myotube, 40 uM, read-out: Burkin Assay in Myotubes, α7 integrin LacZ reporter signal relative to DMSO): 1.22
6 | Cc1ccc(S(=O)(=O)N2CN(CC3CCCO3)c3nc4ccccc4nc32)c(C)c1 (centres unmarked) [MLS001139288-01] | 0.9823 | 0.9709 | 0.8634 | 0.9225 | 1.247 | 1.047 | 1.096 | 1.0825 | – | – | – | – | – | – | – | – | – | – | – | – | Burkin Assay in Myoblasts, signal relative to DMSO ([1]; 20 uM): 1.085; Burkin Assay in Myoblasts, signal relative to DMSO ([1]; 40 uM): 0.9336; Burkin Assay in Myotubes, α7 integrin LacZ reporter signal relative to DMSO ([3]; 0.5 uM): 0.9234; Burkin Assay in Myotubes, α7 integrin LacZ reporter signal relative to DMSO ([3]; 1 uM): 0.8525; Burkin Assay in Myotubes, α7 integrin LacZ reporter signal relative to DMSO ([3]; 5 uM): 0.9829; Burkin Assay in Myotubes, α7 integrin LacZ reporter signal relative to DMSO ([3]; 10 uM): 0.9777; Burkin Assay in Myotubes, α7 integrin LacZ reporter signal relative to DMSO ([3]; 20 uM): 1.313; Burkin Assay in Myotubes, α7 integrin LacZ reporter signal relative to DMSO ([3]; 40 uM): 0.7808
7 | COc1ccc(S(=O)(=O)N2CCN(C(=O)C3CCC3)CC2)cc1 [MLS001139515-01] | – | – | – | – | – | – | – | – | 0.9225 | 0.9852 | 1.053 | 1.16 | 0.8336 | 0.8527 | 0.9636 | 1.009 | 1.013 | 0.9488 | 1.124 | 1.013 | CMV-LACZ in Myotubes (β-galactosidase activity relative to DMSO) ([2]; 5 uM): 0.9404; CMV-LACZ in Myotubes (β-galactosidase activity relative to DMSO) ([2]; 10 uM): 0.7604; CMV-LACZ in Myotubes (β-galactosidase activity relative to DMSO) ([2]; 20 uM): 0.9237; CMV-LACZ in Myotubes (β-galactosidase activity relative to DMSO) ([2]; 40 uM): 0.9601
8 | COc1ccc(C(=O)N/C(=C/c2cccnc2)C(=O)N2CCN(C)CC2)cc1OC [MLS001140657-01] | – | – | – | – | – | – | – | – | 0.9918 | 0.962 | 0.9528 | 0.8768 | 0.8568 | 0.7978 | 1.034 | 0.9506 | 1.083 | 0.9981 | 0.9948 | 0.9708 | CMV-LACZ in Myotubes (β-galactosidase activity relative to DMSO) ([2]; 5 uM): 1.053; CMV-LACZ in Myotubes (β-galactosidase activity relative to DMSO) ([2]; 10 uM): 1.046; CMV-LACZ in Myotubes (β-galactosidase activity relative to DMSO) ([2]; 20 uM): 1.05; CMV-LACZ in Myotubes (β-galactosidase activity relative to DMSO) ([2]; 40 uM): 1.075
